Measurements as given in PubChem BioAssay (NCI).
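Protocol summary: plate cells (96-well), add compound at 5 concentrations, incubate 48 h, interpolate endpoints linearly. TGI: concentration producing complete growth inhibition.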 Where a SMILES comes first, the peptide text is derived from it. The star is where a group is joined. Cbz = O=C(OCc1ccccc1)*; Boc = CC(C)(C)OC(=O)*; OBn = c1ccc(CO*)cc1

Key:
Test in all cases: NCI tumour cell line growth inhibition, 48 h
A549 NSCLC = test system: A549 NSCLC
SK-MEL-28 melanoma = test system: SK-MEL-28 melanoma
SNB-19 CNS = test system: SNB-19 CNS
HOP-62 NSCLC = test system: HOP-62 NSCLC
SW-620 colon = test system: SW-620 colon
PC-3 prostate = test system: PC-3 prostate
EKVX NSCLC = test system: EKVX NSCLC
HCT-15 colon = test system: HCT-15 colon
KM12 colon = test system: KM12 colon
LOX IMVI melanoma = test system: LOX IMVI melanoma
HS 578T breast = test system: HS 578T breast
NCI-H226 lung = test system: NCI-H226 lung
COLO 205 colon = test system: COLO 205 colon
MDA-N = test system: MDA-N
TK-10 renal = test system: TK-10 renal
NCI-H23 lung = test system: NCI-H23 lung
MOLT-4 leukemia = test system: MOLT-4 leukemia
NCI/ADR-RES ovarian = test system: NCI/ADR-RES ovarian
SF-539 CNS = test system: SF-539 CNS
NCI-H460 lung = test system: NCI-H460 lung

| SMILES | TGI (A549 NSCLC) [µM] | TGI (SK-MEL-28 melanoma) [µM] | TGI (SNB-19 CNS) [µM] | TGI (HOP-62 NSCLC) [µM] | TGI (SW-620 colon) [µM] | TGI (PC-3 prostate) [µM] | TGI (EKVX NSCLC) [µM] | TGI (HCT-15 colon) [µM] | TGI (KM12 colon) [µM] | TGI (LOX IMVI melanoma) [µM] | TGI (HS 578T breast) [µM] | TGI (NCI-H226 lung) [µM] | TGI (COLO 205 colon) [µM] | TGI (MDA-N) [µM] | TGI (TK-10 renal) [µM] | TGI (NCI-H23 lung) [µM] | TGI (MOLT-4 leukemia) [µM] | TGI (NCI/ADR-RES ovarian) [µM] | TGI (SF-539 CNS) [µM] | TGI (NCI-H460 lung) [µM] |
| --- | --- | --- | --- | --- | --- | --- | --- | --- | --- | --- | --- | --- | --- | --- | --- | --- | --- | --- | --- | --- |
| CCC1c2[nH]c3ccccc3c2C[C@H]2C(=O)NC(Cc3ccccc3)C(=O)N12 (stereo partly specified) | > 100 | > 100 | > 100 | > 100 | > 100 | 58.2 | 95 | > 100 | 66 | 45.8 | 47.9 | 74.9 | 39 | 67.5 | > 100 | > 100 | 56.9 | 95.3 | – | – |
| CSc1ccc(C=C2N=C(c3ccccc3)N(c3cc(C(=O)c4ccccc4)ccc3N3C(=O)/C(=C/c4ccc(SC)cc4)N=C3c3ccccc3)C2=O)cc1 | > 100 | > 100 | > 100 | > 100 | > 100 | > 100 | > 100 | > 100 | > 100 | > 100 | > 100 | – | > 100 | > 100 | > 100 | – | > 100 | > 100 | 79.5 | > 100 |
| COC(=O)[C@H]1[C@H](OC(=O)[C@@H](OC)c2ccccc2)ON2CC[C@@H](OC(=O)c3ccccc3)[C@H]12 | > 100 | > 100 | > 100 | > 100 | – | > 100 | > 100 | > 100 | > 100 | > 100 | > 100 | > 100 | > 100 | > 100 | > 100 | > 100 | > 100 | > 100 | – | > 100 |
| CC(=O)N(CCc1ccccc1)C(C)(C#N)c1ccccc1 (stereo unspecified) | > 100 | > 100 | > 100 | > 100 | > 100 | > 100 | > 100 | > 100 | > 100 | > 100 | > 100 | > 100 | > 100 | > 100 | > 100 | > 100 | > 100 | > 100 | > 100 | – |
| CC1(c2nc3ccccc3[nH]2)CCC(CO)C(C)(C)O1 (stereo unspecified) | > 100 | > 100 | > 100 | > 100 | > 100 | > 100 | > 100 | > 100 | > 100 | > 100 | > 100 | > 100 | > 100 | > 100 | > 100 | > 100 | > 100 | > 100 | > 100 | – |
| NC1=NC(=O)[C@H](CSCc2ccccc2)N1C(=O)OCc1ccccc1 | – | – | > 100 | > 100 | > 100 | > 100 | > 100 | > 100 | > 100 | > 100 | > 100 | > 100 | > 100 | > 100 | > 100 | > 100 | > 100 | > 100 | – | > 100 |
| COC(=O)C(CCCCNC(=O)OCc1ccccc1)NC(=O)C(CCC(=O)OCc1ccccc1)NC(=O)OC(C)(C)C (stereo unspecified) (Boc-Glu(OBn)-Lys(Cbz)-OMe; configuration not given here) | > 100 | > 100 | > 100 | 32.2 | > 100 | > 100 | > 100 | > 100 | > 100 | > 100 | > 100 | > 100 | > 100 | > 100 | > 100 | > 100 | > 100 | > 100 | > 100 | – |
| O=C1C(c2c(O)n(-c3ccccc3)c3ccccc23)=Nc2ccccc21 | > 100 | > 100 | > 100 | > 100 | > 100 | 80.9 | 83.2 | > 100 | > 100 | > 100 | > 100 | 70 | 66.3 | > 100 | 53.6 | > 100 | > 100 | > 100 | – | > 100 |
| CC(=O)NC1C(OCc2ccccc2)OC(CO)C(O)C1OCC(=O)NC(C)C(=O)NC(CCC(=O)Nc1ccc2c(c1)CN1C(=O)c3ccccc3C1=N2)C(N)=O (stereo unspecified) | > 100 | > 100 | > 100 | > 100 | > 100 | > 100 | > 100 | > 100 | > 100 | > 100 | > 100 | – | > 100 | > 100 | > 100 | > 100 | > 100 | > 100 | > 100 | > 100 |
| CCC/C(Cl)=N/OC(=O)Nc1cccc(F)c1 | 41.6 | 9.82 | 32.3 | 29.9 | 2.98 | 30.7 | 12.2 | 4.1 | 31.2 | 5.42 | > 63.1 | 27.9 | 3.98 | 23.1 | > 19.7 | 38.2 | 5.55 | > 21.1 | – | 39 |
| CC(=O)Nc1ccccc1S(=O)(=O)c1c(-c2c(C)c(Cl)c(C)c(Cl)c2C)noc1C | > 100 | > 100 | 64.5 | 50 | > 100 | > 100 | > 100 | > 100 | > 100 | – | 73.7 | 78.8 | > 100 | > 100 | 73.7 | > 100 | > 100 | > 100 | – | > 100 |
| c1ccc2c(-c3ccnc(-c4c[nH]c5ccccc45)n3)c[nH]c2c1 | > 100 | > 100 | > 100 | 28.7 | 25.9 | 10.7 | > 100 | > 100 | 23.9 | 10.1 | > 100 | – | > 100 | 7.33 | > 100 | – | 5.84 | > 100 | > 100 | > 100 |
